Measurements reported in US9493468B2, “Antifungal 5,6-dihydro-4H-pyrrolo[1,2-a][1,4]benzo-diazepines and 6H-pyrrolo[1,2-a][1,4]benzodiazepines substituted with heterocyclic derivatives” (Janssen Pharmaceutica NV, priority 2011, dated 2016).

How the values were obtained:
Assay type in all cases: cell-based
Cryptococcus neoformans = assay: Antifungal activity in vitro, resazurin growth inhibition: Cryptococcus neoformans (B66663)
Summary of the method: (§1)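 Broth microdilution: RPMI-1640/L-Gln/2% glucose, MOPS pH 7.0±0.1; 10^3 cfu/well; top concentration 64 μM, 2- or 4-fold steps. Dermatophytes at 27° C., one week or more. Resazurin 0.005% (w/v) added, fluorescence 550/590 nm.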

Candida parapsilosis = assay: Antifungal activity in vitro, resazurin growth inhibition: Candida parapsilosis (B66126)
Summary of the method: as §1

Scedosporium prolificans = assay: Antifungal activity in vitro, resazurin growth inhibition: Scedosporium prolificans (IHEM21157)
Method: (§2) The standard susceptibility screen is performed in 96-well plates (U-bottom, Greiner Bio-One). Serial dilutions (2-fold or 4-fold) of 20 mM compound stock solutions are made in 100% DMSO, followed by an intermediate dilution step in water. These serial dilutions (10 μl) are then spotted onto test-plates that can be stored in the dark at 4° C. for a maximum period of 2 weeks. An adequate broad dose-range is included with 64 μM as the highest in-test concentration. The culture medium RPMI-1640 is supplemented with L-glutamine, 2% glucose and buffered with 3-(N-morpholino)-propanesulfonic acid (MOPS) at pH 7.0±0.1.
(§3) The different fungal species/isolates (Table 3a) are cryopreserved and 1/1000 diluted in medium just prior to use. A standard inoculum of 200 μl containing 10^3 colony-forming unit (cfu) is then added to each well. A positive control (100% growth=fungal culture without antifungal) and a negative control (0% growth ═RPMI-MOPS medium) are included on each plate. Optimal incubation time and temperature are dependent on the fungal species and vary from 24 h for yeasts (37° C.) to one week or more for dermatophytes (27° C.). Inhibition of fungal growth is measured after adding 10 μl of 0.005% (w/v) resazurin (Sigma Aldrich) to each well, based on the principle that living cells convert the non-fluorescent blue resazurin into the pink and fluorescent resorufin, allowing fluorimetric reading (λex 550 nm and λem 590 nm) after an additional incubation period (‘resa’ time mentioned in Table 3a).

Trichophyton rubrum = assay: Antifungal activity in vitro, resazurin growth inhibition: Trichophyton rubrum (B68183)
Summary of the method: (§4)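 Dermatophytes incubated at 27° C. for one week or more with compound, max 64 μM, in RPMI-1640/MOPS pH 7.0±0.1, 10^3 cfu/well. Viability by resazurin-to-resorufin fluorescence, 550/590 nm.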

Rhizomucor miehei = assay: Antifungal activity in vitro, resazurin growth inhibition: Rhizomucor miehei (IHEM13391)
Method: as §2, §3

Aspergillus fumigatus = assay: Antifungal activity in vitro, resazurin growth inhibition: Aspergillus fumigatus (B42928)
Summary of the method: as §1

Sporothrix schenkii = assay: Antifungal activity in vitro, resazurin growth inhibition: Sporothrix schenkii (B62482)
Summary of the method: as §1

[1] = test system: Trichophyton mentagrophytes; assay: Antifungal activity in vitro, resazurin growth inhibition: Trichophyton mentagrophytes (B70554)
Summary of the method: as §4

Microsporum canis = assay: Antifungal activity in vitro, resazurin growth inhibition: Microsporum canis (B68128)
Summary of the method: as §4

Scedosporium apiospermum = assay: Antifungal activity in vitro, resazurin growth inhibition: Scedosporium apiospermum (IHEM3817)
Method: as §2, §3

Rhizopus oryzae = assay: Antifungal activity in vitro, resazurin growth inhibition: Rhizopus oryzae (IHEM5223)
Method: as §2, §3

Inf. F: Cryptococcus neoformans B66663, pIC50 (Cryptococcus neoformans)	Inf. D: Candida parapsilosis B66126, pIC50 (Candida parapsilosis)	Inf. I: Scedosporium prolificans IHEM21157, pIC50 (Scedosporium prolificans)	Inf. C: Trichophyton rubrum B68183, pIC50 (Trichophyton rubrum)	Inf. K: Rhizomucor miehei IHEM13391, pIC50 (Rhizomucor miehei)	Inf. E: Aspergillus fumigatus B42928, pIC50 (Aspergillus fumigatus)	Inf. A: Sporothrix schenkii B62482, pIC50 (Sporothrix schenkii)	Inf. G: Trichophyton mentagrophytes B70554, pIC50 [1]	Inf. B: Microsporum canis B68128, pIC50 (Microsporum canis)	Inf. H: Scedosporium apiospermum IHEM3817, pIC50 (Scedosporium apiospermum)	Inf. J: Rhizopus oryzae IHEM5223, pIC50 (Rhizopus oryzae)	SMILES
4.81	<4.19	5.79	6.10	<4.19	5.47	<4.19	5.61	5.35	<4.19	<4.19	Fc1cccc2cc(C3=NCc4c(Cl)cc(Cl)cc4-n4cccc43)oc12 [Compound 149]
5.00	<4.19	6.35	6.18	<4.19	5.42	4.75	5.80	5.69	4.88	<4.19	Cc1nc2cc(C3=NCc4c(Cl)cccc4-n4cccc43)ccc2s1 [Compound 191]
5.77	<4.19	5.97	7.07	4.80	5.98	5.74	6.43	6.52	4.80	<4.19	Cc1cccc2c1-n1cccc1C(c1cc3ccccc3o1)=NC2 [Compound 117]
5.84	5.25	5.72	6.77	<4.19	5.65	5.00	6.17	6.36	4.35	<4.19	Cn1ccc2ccc(C3=NCc4c(Cl)cccc4-n4cccc43)cc21 [Compound 196]

Second part, the compound before the results:

SMILES	Inf. F: Cryptococcus neoformans B66663, pIC50 (Cryptococcus neoformans)	Inf. D: Candida parapsilosis B66126, pIC50 (Candida parapsilosis)	Inf. I: Scedosporium prolificans IHEM21157, pIC50 (Scedosporium prolificans)	Inf. C: Trichophyton rubrum B68183, pIC50 (Trichophyton rubrum)	Inf. K: Rhizomucor miehei IHEM13391, pIC50 (Rhizomucor miehei)	Inf. E: Aspergillus fumigatus B42928, pIC50 (Aspergillus fumigatus)	Inf. A: Sporothrix schenkii B62482, pIC50 (Sporothrix schenkii)	Inf. G: Trichophyton mentagrophytes B70554, pIC50 [1]	Inf. B: Microsporum canis B68128, pIC50 (Microsporum canis)	Inf. H: Scedosporium apiospermum IHEM3817, pIC50 (Scedosporium apiospermum)	Inf. J: Rhizopus oryzae IHEM5223, pIC50 (Rhizopus oryzae)
CC(=O)c1ccc(C2=NCc3c(F)cc(F)cc3-n3cccc32)cn1 [Compound 94]	4.58	4.59	<4.19	6.19	<4.19	5.13	<4.19	5.92	5.71	<4.19	<4.19
COc1ccc2oc(C3=NCc4c(Cl)cccc4-n4cccc43)cc2c1 [Compound 146]	<4.19	<4.19	4.80	6.19	<4.19	<4.19	<4.19	5.44	5.76	<4.19	<4.19
Cc1cccc2c1CN=C(c1cc3cccc(C)c3o1)c1cccn1-2 [Compound 131]	6.11	4.81	5.99	7.10	4.59	6.11	5.51	6.31	6.50	5.355	<4.34
